How the values were obtained:
II1β mRNA = assay: Real-time RT-PCR of colonic II1β mRNA; type: in vivo, mice
Description: (§1) Total RNA from colonic tissue was extracted using TRIzol® kit (Invitrogen, Carlsbad, Calif., United States of America). Complementary DNA was prepared using M-MLV (Invitrogen). Messenger RNA levels of proinflammatory genes were determined using SYBR® Green PCR Master Mix (Applied Biosystems, Carlsbad, Calif., United States of America) on an ABI 7900HT Fast Real-Time PCR System and normalized to Gapdh. The polymerase chain reactions were performed according to the manufacturer's recommendation. The following gene primers were used: Gapdh_forward: 5′-[…]-3′ (SEQ ID NO: 2), Gapdh_reverse: 5′-[…]-3′ (SEQ ID NO: 3), II-1_forward: 5′-[…]-3′ (SEQ ID NO: 4), II-1_reverse: 5′-[…]-3′ (SEQ ID NO: 5), Cxcl2_forward: 5′-[…]-3′ (SEQ ID NO: 6), Cxcl2_reverse: 5′-[…]-3′ (SEQ ID NO: 7), II-17a_forward: 5′-[…]-3′ (SEQ ID NO: 8), II-17a_reverse: 5′-[…]-3′ (SEQ ID NO: 9), II12p40_forward: […] (SEQ ID NO: 10), II12p40_reverse: […] (SEQ ID NO: 11), Tnf forward: […] (SEQ ID NO: 12), Tnf reverse: […] (SEQ ID NO: 13).
(§2) Total RNA from intestinal tissues was extracted using TRIzol® kit (Invitrogen, Carlsbad, Calif., United States of America) following the manufacture's guide. cDNA was reverse-transcribed using M-MLV (Invitrogen). Proinflammatory 111β, Cxcl2, II17a and Tnfα mRNA expression levels were measured using SYBR® Green PCR Master mix (Applied Biosystems, Carlsbad, Calif., United States of America) on an ABI 7900HT Fast Real-Time PCR System and normalized to Gapdh. The PCR primers used were reported previously. (Sun et al., 2012). The PCR reactions were performed for 40 cycles according to the manufacturer's recommendation, and RNA fold changes were calculated using the ΔΔct method.

Cxcl2 mRNA = assay: Real-time RT-PCR of colonic Cxcl2 mRNA; type: in vivo, mice
Description: as §1, §2

II-17a mRNA = assay: Real-time RT-PCR of colonic II-17a mRNA; type: in vivo, mice
Description: as §1, §2

II-12p40 mRNA = assay: Real-time RT-PCR of colonic II-12p40 mRNA; type: in vivo, mice; details: rapamycin treatment
Description: as §1

Tnfα mRNA = assay: Real-time RT-PCR of colonic Tnfα mRNA; type: in vivo, mice; details: rapamycin treatment
Description: as §1

IL-1β = assay: ELISA of IL-1β secreted from cultured colon explants and MLN; type: in vivo; details: rapamycin-treated infected mice vs control
Description: (§3) Colonic tissue, MLNs, and spleen were weighed, minced with scissors, and incubated in 1 mL 3% fetal bovine serum and 1% antibiotics RPMI medium in a 24-well plate. After 18-hour incubation, medium was collected and centrifuged at 7000 rpm for 5 minutes. Supernatant was collected and stored at −80° C. IL-1β and IL-17 (A) concentrations were assessed by enzyme-linked immunosorbent assay kits (R&D Systems, Minneapolis, Minn., United States of America) following the manufacturer's specification. The IL-17 enzyme-linked immunosorbent assay has no cross-reactivity to IL-17B, C, D, E, and F.

IL-17 = assay: ELISA of IL-17 secreted from cultured colon explants and MLN; type: in vivo; details: rapamycin-treated infected mice vs control
Description: as §3

Gr-1+/CD45+ cells = assay: Flow cytometry of peripheral blood neutrophils (Gr-1+/CD45+); type: in vivo; details: rapamycin-treated infected vs untreated infected mice
Description: To assess blood neutrophils, mice were sacrificed and peripheral blood was drawn and mixed with an anticoagulant (20 μL 96 mmol/L EDTA). White blood cells were collected following erythrocyte lysis. The cells were then incubated with antibodies against CD45 (PE conjugated), Gr-1 (fluorescein isothiocyanate conjugated) (eBiosciences, San Diego, Calif., United States of America). To analyze the change of CD4^+ cells after antibody-mediated depletion, freshly isolated splenocytes and MLNs from C jejuni-infected mice were then incubated with PE-conjugated antibodies against CD4 (eBiosciences, San Diego, Calif., United States of America). The cells were analyzed on a Cyan flow cytometer (Beckman Coulter, Inc., Brea, Calif., United States of America) to determine the proportion of total immune cells, neutrophils, or CD4^+ T cells, respectively. The results were then analyzed on Summit software (Beckman Coulter, Inc., Brea, Calif., United States of America).

C. jejuni = type: in vivo, mice; details: colon, rapamycin treatment vs infected untreated mice
Excerpt: All animal protocols were approved by the Institutional Animal Care and Use Committee of the University of North Carolina at Chapel Hill (Chapel Hill, N.C., United States of America). Germ-free 8 to 12 week old II10^−/−; NF-κBEGFP (129/SvEv; C57BL/6 mixed background) mice were transferred from germ-free isolators and immediately gavaged with 10^9 C. jejuni cfu/mouse (strain 81-176 (Korlath et al., 1985)). Mice were then housed under Specific Pathogen-Free (SPF) conditions and sacrificed at 5 or 12 days. Germ-free II10^−/−; NF-κB^EGFP mice were also gavaged with 10^7 Salmonella typhimurium (S. typhimurium strain CA32) cfu/mouse for 2 days or 10^7 Escherichia coli (E. coli strain NC 101) cfu/mouse for 12 days. Conventionally-derived II10^−/−; NF-κB^EGFP mice were put on an antibiotic cocktail (streptomycin 2 g/L, gentamycin 0.5 g/L, bacteriocin 1 g/L and ciprofloxacin 0.125 g/L) in water for 7 days and antibiotics withdrawn 24 hours prior to infection. The mice were then gavaged with 10^9 C. jejuni cfu/mouse for 14 days. To inhibit mTOR signaling, mice were injected daily intraperitoneally (i.p.) with rapamycin (1.5 mg/kg) (Fisher Scientific, Hampton, N.H., United States of America). At the end of the experiment, mice were euthanized using CO2 intoxication. Colon, mesenteric lymph nodes (MLN) and spleen were collected for further processing RNA, protein or C. jejuni culture on Campylobacter selective blood plates (Remel, Thermo Scientific, Hampton, N.H., United States of America) for 48 h at 37° C. using the GasPak system (Becton Dickinson, Franklin Lakes, N.J., United States of America). […] Colons were fixed in 10% buffered formalin (Fisher Scientific, Hampton, N.H., United States of America) overnight, paraffin-embedded, sectioned, and stained with H&E for histological evaluation. Images were acquired using a DP71 camera and DP Controller 3.1.1.276 (Olympus, Center Valley, Pa., United States of America). Intestinal inflammation was scored by evaluating the degree of lamina propria immune cell infiltration, goblet cell depletion, architectural distortion, as well as crypt hyperplasia, ulceration, and abscesses using a score from 0-4. (Lippert et al., 2009). Cecal and colonic inflammation induced by S. typhimurium was evaluated using a score from 0-13 as described. (Hapfelmeier et al., 2005).
MLN and spleen were aseptically resected. Colon tissue was opened, resected and washed three times in sterile PBS. […] C. jejuni colonies were counted and data presented as colony forming unit (cfu)/g tissue.

[1] = colon, rapamycin-treated, C. jejuni-infected mice
[2] = supernatant of cultured colon explants
[3] = wortmannin vs vehicle-treated infected mice

| Structure (SMILES) | attenuation of C. jejuni induced I1-1β mRNA accumulation (II1β mRNA; [1]) [%] | attenuation of C. jejuni induced Cxcl2 mRNA accumulation (Cxcl2 mRNA; [1]) [%] | attenuation of C. jejuni induced II-17a mRNA accumulation (II-17a mRNA; [1]) [%] | C. jejuni-induced colonic II-12p40 mRNA accumulation (II-12p40 mRNA) | C. jejuni-induced colonic Tnfα mRNA accumulation (Tnfα mRNA) | reduction of IL-1β production (IL-1β; MLN) [%] | reduction of IL-1β production (IL-1β; [2]) [%] | attenuation of IL-17 production (IL-17; MLN) [%] | reduction of secreted IL-17 (IL-17; [2]) [%] | decrease of ratio of Gr-1+/CD45+ cells in the blood (Gr-1+/CD45+ cells) [%] | reduction of C. jejuni colonic invasion (culture count) (C. jejuni) [%] | block of C. jejuni-induced I11β mRNA accumulation (II1β mRNA; [3]) [%] | block of C. jejuni-induced Cxcl2 mRNA accumulation (Cxcl2 mRNA; [3]) [%] | block of C. jejuni-induced II17a mRNA accumulation (II-17a mRNA; [3]) [%] |
| --- | --- | --- | --- | --- | --- | --- | --- | --- | --- | --- | --- | --- | --- | --- |
| CO[C@H]1C[C@@H]2CC[C@@H](C)[C@@](O)(O2)C(=O)C(=O)N2CCCC[C@H]2C(=O)O[C@H]([C@H](C)C[C@@H]2CC[C@@H](O)[C@H](OC)C2)CC(=O)[C@H](C)/C=C(\C)[C@@H](O)[C@@H](OC)C(=O)[C@H](C)C[C@H](C)/C=C/C=C/C=C/1C [rapamycin] | 79 | 75 | 92 | not significantly inhibited | not significantly inhibited | 41 | 59 | 82 | 94 | 41 | 90 |  |  |  |
| COC[C@H]1OC(=O)c2coc3c2[C@@]1(C)C1=C(C3=O)[C@@H]2CCC(=O)[C@@]2(C)C[C@H]1OC(C)=O [wortmannin] |  |  |  |  |  |  |  |  |  |  |  | 50 | 77 | 78 |

Source: patent publication US20130225629A1, “TARGETING PI3K/MTOR SIGNALLING AND NEUTROPHIL RECRUITMENT FOR TREATMENT OF ENTERITIS” (THE UNIVERSITY OF NORTH CAROLINA AT CHAPEL HILL, priority 2012, published 2013)
